Experimental data taken from article PMC9157191, “The ex vivo pharmacology of HIV-1 antiretrovirals differs between macaques and humans” (iScience, 2022).

Columns and labels:
[1] = Drug concentrations in Rhesus macaque vaginal tissue explants (LC-MS/MS); type: in vitro ADME, Rhesus macaque (Macaca mulatta); settings: for AUC3h–15d / Cmax: Rh. macaque vaginal explants, intracellular
[2] = Drug concentrations in human colorectal tissue explants (LC-MS/MS); type: in vitro ADME; settings: for AUC3h-15d / Cmax: Human colorectal explants, intracellular
[3] = Drug concentrations in Rhesus macaque ecto-cervical tissue explants (LC-MS/MS); type: in vitro ADME, Rhesus macaque (Macaca mulatta); settings: NHP ecto-cervical explants; harvesting schedule of the assay
[4] = Drug concentrations in human ecto-cervical tissue explants (LC-MS/MS); settings: human ecto-cervical explants; harvesting schedule of the assay
[5] = Drug concentrations in Rhesus macaque colorectal tissue explants (LC-MS/MS); type: in vitro ADME, Rhesus macaque (Macaca mulatta); settings: for AUC3h–15d / Cmax: Rh. macaque colorectal explants, intracellular
SIVmac32H K65RM184V [6] = test: microbe, parasite or virus in culture; type: cell-based; settings: for p27 AUC3-15: Rhesus macaque vaginal explants
HIV-1YU.2 = test: microbe, parasite or virus in culture; type: cell-based; settings: Human colorectal explants
RT-SHIV [7] = test: tissue or blood; type: cell-based; settings: for p27 AUC3-15: Rhesus macaque vaginal explants
HIV-1BaL [8] = test: microbe, parasite or virus in culture; type: cell-based; settings: Human colorectal explants
SIVmac32H [9] = test: microbe, parasite or virus in culture; type: cell-based; settings: for p27 AUC3-15: Rhesus macaque vaginal explants
RT-SHIV [10] = test: tissue or blood; type: cell-based; settings: for p27 AUC3-15: Rhesus macaque colorectal explants
SIVmac32H [11] = test: microbe, parasite or virus in culture; type: cell-based; settings: for p27 AUC3-15: Rhesus macaque colorectal explants
HIV-1/SIV/SHIV isolates = type: cell-based
SIVmac32H K65RM184V [12] = test: microbe, parasite or virus in culture; type: cell-based; settings: for p27 AUC3-15: Rhesus macaque colorectal explants
HIV-1YU.2 K65RM184V = test: microbe, parasite or virus in culture; type: cell-based; settings: Human colorectal explants;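 as to p24 AUC3-15: high arm above the IC50 and low arm below the IC50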
SIVmac32H K65RM184V [13] = test: microbe, parasite or virus in culture; type: cell-based; settings: for p27 AUC3-15: Rhesus macaque cervical explants
SIVmac32H [14] = test: microbe, parasite or virus in culture; type: cell-based; settings: for p27 AUC3-15: Rhesus macaque cervical explants
[15] = tested on: HIV-1YU.2 L313T/I321V and V314T/I321V; type: cell-based
HIV-1BaL [16] = test: microbe, parasite or virus in culture; type: cell-based; settings: Human cervical explants
HIV-1YU.2 K65R = test: microbe, parasite or virus in culture; type: cell-based; settings: Human colorectal explants
HIV-1YU.2 M184V = test: microbe, parasite or virus in culture; type: cell-based; settings: Human colorectal explants
[17] = Comb. gel, High [ ]: TFV 70 µM + MVC […]
[18] = Comb. gel, Low [ ]: TFV 7 µM + MVC […]
[19] = Single gel, High [ ]: TFV 70 µM
[20] = high concentration: TFV 70 µM, MVC […], or TFV 70 µM + MVC […]
[21] = low concentration: TFV 7 µM, MVC […], or TFV 7 µM + MVC […]
[22] = NHP colorectal explants, day 15

Molecule: CC(Cn1cnc2c(N)ncnc21)OCP(=O)(O)OP(=O)(O)OP(=O)(O)O (stereo in doubt) [TFVdp]
- Cmax fold increase ([1]; NHP vaginal Cmax lower than in colorectal explants): 1.6 fold
- AUC3h–15d [1, 17]: 96.03 fmol·days/mg
- Cmax [1, 17]: 12.81 fmol/mg
- AUC3h–15d [1, 18]: 54.08 fmol·days/mg
- Cmax [1, 18]: 7.21 fmol/mg
- AUC3h–15d [1, 19]: 134.18 fmol·days/mg
- Cmax [1, 19]: 17.89 fmol/mg
- AUC3h–15d ([1]; Single gel, Low [ ]: TFV 7 µM): 46.22 fmol·days/mg
- Cmax ([1]; Single gel, Low [ ]: TFV 7 µM): 6.16 fmol/mg
- persistence of metabolite: detected post-dose ([1]; vaginal tissue): 3 h
- AUC3h-15d [2, 17]: 82.53 fmol·days/mg
- Cmax [2, 17]: 20.07 fmol/mg
- AUC3h-15d [2, 18]: 41.21 fmol·days/mg
- Cmax [2, 18]: 8.36 fmol/mg
- AUC3h-15d [2, 19]: 98.95 fmol·days/mg
- Cmax [2, 19]: 22.41 fmol/mg
- AUC3h-15d ([2]; Single gel, Low [ ]: TFV 7 µM): 35.29 fmol·days/mg
- Cmax ([2]; Single gel, Low [ ]: TFV 7 µM): 8.36 fmol/mg
- difference in TFVdp concentrations between NHP and humans ([2]; colorectal explants): No significant differences
- TFVdp detection [3]: neither detected
- TFVdp detection [4]: neither detected
- AUC3h–15d [5, 17]: 148.40 fmol·days/mg
- Cmax [5, 17]: 29.12 fmol/mg
- AUC3h–15d [5, 18]: 107.96 fmol·days/mg
- Cmax [5, 18]: 24.43 fmol/mg
- AUC3h–15d [5, 19]: 176.28 fmol·days/mg
- Cmax [5, 19]: 41.93 fmol/mg
- AUC3h–15d ([5]; Single gel, Low [ ]: TFV 7 µM): 164.03 fmol·days/mg
- Cmax ([5]; Single gel, Low [ ]: TFV 7 µM): 41.47 fmol/mg
- persistence of metabolite: still detected post-dose ([5]; colorectal explants): up to 3 days

Molecule: Maraviroc [MVC]
- IC50 (SIVmac32H K65RM184V [6]; NHP vaginal explants, day 15): 3.31 ± 1.68 µM
- p27 AUC3-15 (SIVmac32H K65RM184V [6]; [20]): 1.33 ± 0.30 µgxd/ml
- p27 AUC3-15 (SIVmac32H K65RM184V [6]; [21]): 1.55 ± 0.28 µgxd/ml
- IC50 (HIV-1YU.2; day 15): 1.15 ± 0.84 µM
- p24 AUC3-15 (HIV-1YU.2; [20]): 1.60 ± 0.57 µgxd/ml
- p24 AUC3-15 (HIV-1YU.2; [21]): 9.15 ± 5.28 µgxd/ml
- IC50 (RT-SHIV [7]; NHP vaginal explants, day 15): 2.56 ± 1.59 µM
- p27 AUC3-15 (RT-SHIV [7]; [20]): 1.27 ± 0.28 µgxd/ml
- p27 AUC3-15 (RT-SHIV [7]; [21]): 1.54 ± 0.31 µgxd/ml
- IC50 (HIV-1BaL [8]; day 15): 1.26 ± 0.49 µM
- p24 AUC3-15 (HIV-1BaL [8]; [20]): 0.59 ± 0.33 µgxd/ml
- p24 AUC3-15 (HIV-1BaL [8]; [21]): 2.68 ± 1.79 µgxd/ml
- IC50 (SIVmac32H [9]; NHP vaginal explants, day 15): 3.32 ± 3.19 µM
- p27 AUC3-15 (SIVmac32H [9]; [20]): 1.26 ± 0.24 µgxd/ml
- p27 AUC3-15 (SIVmac32H [9]; [21]): 1.45 ± 0.28 µgxd/ml
- IC50 (RT-SHIV [10]; [22]): 2.32 ± 0.78 µM
- p27 AUC3-15 (RT-SHIV [10]; [20]): 2.85 ± 2.01 µgxd/ml
- p27 AUC3-15 (RT-SHIV [10]; [21]): 5.25 ± 3.12 µgxd/ml
- IC50 (SIVmac32H [11]; [22]): 1.96 ± 1.3 µM
- p27 AUC3-15 (SIVmac32H [11]; [20]): 2.42 ± 0.53 µgxd/ml
- p27 AUC3-15 (SIVmac32H [11]; [21]): 6.12 ± 1.35 µgxd/ml
- potency against the mutant isolates (HIV-1/SIV/SHIV isolates): no impact
- IC50 (SIVmac32H K65RM184V [12]; [22]): 1.98 ± 1.07 µM
- p27 AUC3-15 (SIVmac32H K65RM184V [12]; [20]): 1.33 ± 0.22 µgxd/ml
- p27 AUC3-15 (SIVmac32H K65RM184V [12]; [21]): 1.65 ± 0.32 µgxd/ml
- IC50 (HIV-1YU.2 K65RM184V; day 15): 1.43 ± 0.98 µM
- p24 AUC3-15 (HIV-1YU.2 K65RM184V; [20]): 0.82 ± 0.09 µgxd/ml
- p24 AUC3-15 (HIV-1YU.2 K65RM184V; [21]): 1.60 ± 0.38 µgxd/ml
- IC50 (SIVmac32H K65RM184V [13]; NHP cervical explants, day 15): 4.57 ± 2.92 µM
- p27 AUC3-15 (SIVmac32H K65RM184V [13]; [20]): 1.37 ± 0.30 µgxd/ml
- p27 AUC3-15 (SIVmac32H K65RM184V [13]; [21]): 1.62 ± 0.33 µgxd/ml
- IC50 (SIVmac32H [14]; NHP cervical explants, day 15): 2.74 ± 1.18 µM
- p27 AUC3-15 (SIVmac32H [14]; [20]): 1.27 ± 0.35 µgxd/ml
- p27 AUC3-15 (SIVmac32H [14]; [21]): 1.42 ± 0.44 µgxd/ml
- inhibitory potency against Env-mutated HIV-1YU.2 [15]: no reduction of inhibitory potency
- IC50 (HIV-1BaL [16]; day 15): 2.85 ± 0.49 µM
- p24 AUC3-15 (HIV-1BaL [16]; [20]): 1.32 ± 0.36 µgxd/ml
- p24 AUC3-15 (HIV-1BaL [16]; [21]): 2.61 ± 1.35 µgxd/ml
- IC50 (HIV-1YU.2 K65R; day 15): 2.77 ± 1.12 µM
- p24 AUC3-15 (HIV-1YU.2 K65R; [20]): 0.36 ± 0.05 µgxd/ml
- p24 AUC3-15 (HIV-1YU.2 K65R; [21]): 0.76 ± 0.10 µgxd/ml
- IC50 (HIV-1YU.2 M184V; day 15): 1.24 ± 1.88 µM
- p24 AUC3-15 (HIV-1YU.2 M184V; [20]): 0.26 ± 0.13 µgxd/ml
- p24 AUC3-15 (HIV-1YU.2 M184V; [21]): 0.70 ± 0.11 µgxd/ml
